# Measurements taken from ChEMBL document CHEMBL1201862, “PubChem BioAssay data set” (2004).
#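 48-hour exposure; five concentrations; linearly interpolated endpoints. Here, GI50 denotes the concentration required for 50% inhibition of growth.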 The source made the active and inactive calls. Cut-off read from the data, not from the text of the source: active = GI50 up to about 1.1 µM and inactive = higher.
# Legend:
# Test in all cases: NCI tumour cell line growth inhibition, 48 h
# KM12 = system: KM12
# NCI-H226 = system: NCI-H226
# SF-295 = system: SF-295
# M14 = system: M14
# HL-60 = system: HL-60
# PC-3 = system: PC-3
# HOP-62 = system: HOP-62
# A549 = system: A549
# COLO 205 = system: COLO 205
# NCI-H23 = system: NCI-H23
# MDA-MB-231 = system: MDA-MB-231
# U-251 = system: U-251
# RPMI-8226 = system: RPMI-8226
# HCT-15 = system: HCT-15
# SNB-75 = system: SNB-75
# SK-MEL-5 = system: SK-MEL-5
# NCI-H460 = system: NCI-H460
# SF-539 = system: SF-539
# 786-0 = system: 786-0
# OVCAR-8 = system: OVCAR-8
# MCF7 = system: MCF7
# SNB-19 = system: SNB-19
# UO-31 = system: UO-31
# OVCAR-3 = system: OVCAR-3
# DU-145 = system: DU-145
# SN12C = system: SN12C
# A498 = system: A498
# SF-268 = system: SF-268
# BT-549 = system: BT-549
# UACC-257 = system: UACC-257
# HOP-92 = system: HOP-92
# HCC 2998 = system: HCC 2998
# OVCAR-4 = system: OVCAR-4
# SK-OV-3 = system: SK-OV-3
# CCRF-CEM = system: CCRF-CEM
# HT-29 = system: HT-29
# Malme-3M = system: Malme-3M
# NCI/ADR-RES = system: NCI/ADR-RES
# IGROV-1 = system: IGROV-1
# Hs-578T = system: Hs-578T
# NCI-H522 = system: NCI-H522
# MDA-MB-435 = system: MDA-MB-435
# MOLT-4 = system: MOLT-4
# SW-620 = system: SW-620
# UACC-62 = system: UACC-62
# SK-MEL-2 = system: SK-MEL-2
# MDA-N = system: MDA-N
# OVCAR-5 = system: OVCAR-5
# HCT-116 = system: HCT-116
# EKVX = system: EKVX
# T47D = system: T47D
# ACHN = system: ACHN
# RXF 393 = system: RXF 393
# TK-10 = system: TK-10
# SK-MEL-28 = system: SK-MEL-28
# LOX IMVI = system: LOX IMVI
# SR = system: SR
# K562 = system: K562
# CAKI-1 = system: CAKI-1
compound,measurement,setting,value
O=[N+]([O-])c1ccc2nc(O)n[n+]([O-])c2c1,GI50,KM12,> 100 µM (inactive)
same,GI50,NCI-H226,> 100 µM (inactive)
same,GI50,SF-295,> 100 µM (inactive)
same,GI50,M14,> 100 µM (inactive)
same,GI50,HL-60,> 100 µM (inactive)
same,GI50,PC-3,> 100 µM (inactive)
same,GI50,HOP-62,> 100 µM (inactive)
same,GI50,A549,> 100 µM (inactive)
same,GI50,COLO 205,> 100 µM (inactive)
same,GI50,NCI-H23,> 100 µM (inactive)
same,GI50,MDA-MB-231,> 100 µM (inactive)
same,GI50,U-251,> 100 µM (inactive)
same,GI50,RPMI-8226,97.9 µM (inactive)
same,GI50,HCT-15,> 100 µM
same,GI50,SNB-75,> 100 µM (inactive)
same,GI50,SK-MEL-5,> 100 µM (inactive)
same,GI50,NCI-H460,> 100 µM (inactive)
same,GI50,SF-539,> 100 µM (inactive)
same,GI50,786-0,> 100 µM (inactive)
same,GI50,OVCAR-8,> 100 µM (inactive)
same,GI50,MCF7,> 100 µM (inactive)
same,GI50,SNB-19,> 100 µM (inactive)
same,GI50,UO-31,> 100 µM (inactive)
same,GI50,OVCAR-3,> 100 µM (inactive)
same,GI50,DU-145,> 100 µM (inactive)
same,GI50,SN12C,> 100 µM (inactive)
same,GI50,A498,> 100 µM (inactive)
same,GI50,SF-268,> 100 µM (inactive)
same,GI50,BT-549,> 100 µM (inactive)
same,GI50,UACC-257,> 100 µM (inactive)
same,GI50,HOP-92,> 100 µM (inactive)
same,GI50,HCC 2998,> 100 µM (inactive)
same,GI50,OVCAR-4,> 100 µM (inactive)
same,GI50,SK-OV-3,> 100 µM (inactive)
same,GI50,CCRF-CEM,> 100 µM (inactive)
same,GI50,HT-29,> 100 µM (inactive)
same,GI50,Malme-3M,> 100 µM (inactive)
same,GI50,NCI/ADR-RES,> 100 µM (inactive)
same,GI50,IGROV-1,> 100 µM (inactive)
same,GI50,Hs-578T,> 100 µM (inactive)
same,GI50,NCI-H522,> 100 µM (inactive)
same,GI50,MDA-MB-435,> 100 µM (inactive)
same,GI50,MOLT-4,> 100 µM (inactive)
same,GI50,SW-620,> 100 µM (inactive)
same,GI50,UACC-62,> 100 µM (inactive)
same,GI50,SK-MEL-2,> 100 µM (inactive)
same,GI50,MDA-N,> 100 µM (inactive)
same,GI50,OVCAR-5,> 100 µM (inactive)
same,GI50,HCT-116,> 100 µM (inactive)
same,GI50,EKVX,> 100 µM (inactive)
same,GI50,T47D,> 100 µM (inactive)
same,GI50,ACHN,> 100 µM (inactive)
same,GI50,RXF 393,> 100 µM (inactive)
same,GI50,TK-10,> 100 µM (inactive)
same,GI50,SK-MEL-28,> 100 µM (inactive)
same,GI50,LOX IMVI,> 100 µM (inactive)
same,GI50,SR,> 20.6 µM (inactive)
same,GI50,K562,> 100 µM (inactive)
CCOC(=O)C#Cc1ccc([N+](=O)[O-])cc1,GI50,KM12,1.82 µM (inactive)
same,GI50,NCI-H226,2.68 µM (inactive)
same,GI50,SF-295,12.9 µM (inactive)
same,GI50,M14,2.15 µM (inactive)
same,GI50,HL-60,1.73 µM (inactive)
same,GI50,PC-3,2.72 µM (inactive)
same,GI50,HOP-62,3.24 µM (inactive)
same,GI50,A549,10.4 µM (inactive)
same,GI50,COLO 205,1.72 µM (inactive)
same,GI50,NCI-H23,2.59 µM (inactive)
same,GI50,MDA-MB-231,2.28 µM (inactive)
same,GI50,U-251,1.64 µM (inactive)
same,GI50,RPMI-8226,1.98 µM (inactive)
same,GI50,HCT-15,1.82 µM
same,GI50,SNB-75,2.24 µM (inactive)
same,GI50,SK-MEL-5,2.67 µM (inactive)
same,GI50,NCI-H460,12.4 µM (inactive)
same,GI50,SF-539,2.06 µM (inactive)
same,GI50,786-0,1.55 µM (inactive)
same,GI50,OVCAR-8,2.37 µM (inactive)
same,GI50,MCF7,1.24 µM (inactive)
same,GI50,SNB-19,13 µM (inactive)
same,GI50,UO-31,1.77 µM (inactive)
same,GI50,OVCAR-3,1.71 µM (inactive)
same,GI50,DU-145,1.74 µM (inactive)
same,GI50,SN12C,1.69 µM (inactive)
same,GI50,A498,17.5 µM (inactive)
same,GI50,SF-268,2.52 µM (inactive)
same,GI50,BT-549,2.18 µM (inactive)
same,GI50,UACC-257,3.32 µM (inactive)
same,GI50,HOP-92,1.8 µM (inactive)
same,GI50,HCC 2998,14.8 µM (inactive)
same,GI50,OVCAR-4,11.2 µM (inactive)
same,GI50,SK-OV-3,12.7 µM (inactive)
same,GI50,CCRF-CEM,1.1 µM (active)
same,GI50,HT-29,1.53 µM (inactive)
same,GI50,NCI/ADR-RES,4.18 µM (inactive)
same,GI50,IGROV-1,1.96 µM (inactive)
same,GI50,Hs-578T,4.18 µM (inactive)
same,GI50,NCI-H522,1.49 µM (inactive)
same,GI50,MDA-MB-435,3.44 µM (inactive)
same,GI50,MOLT-4,1.73 µM (inactive)
same,GI50,SW-620,2.28 µM (inactive)
same,GI50,UACC-62,1.98 µM (inactive)
same,GI50,SK-MEL-2,3.24 µM (inactive)
same,GI50,CAKI-1,1.87 µM (inactive)
same,GI50,MDA-N,3.19 µM (inactive)
same,GI50,OVCAR-5,1 µM (active)
same,GI50,HCT-116,1.66 µM (inactive)
same,GI50,EKVX,3.15 µM (inactive)
same,GI50,T47D,2.01 µM (inactive)
same,GI50,ACHN,3.21 µM (inactive)
same,GI50,RXF 393,1.28 µM (inactive)
same,GI50,TK-10,14.3 µM (inactive)
same,GI50,SK-MEL-28,5.52 µM (inactive)
same,GI50,LOX IMVI,1.34 µM (inactive)
same,GI50,SR,1.77 µM (inactive)
same,GI50,K562,2.07 µM (inactive)
CC1C=C(NCC2(CO)CCC2)N=C(N)N1 (stereo not drawn),GI50,KM12,> 100 µM (inactive)
same,GI50,NCI-H226,> 100 µM (inactive)
same,GI50,SF-295,> 100 µM (inactive)
same,GI50,M14,> 100 µM (inactive)
same,GI50,HL-60,> 100 µM (inactive)
same,GI50,PC-3,> 100 µM (inactive)
same,GI50,HOP-62,> 100 µM (inactive)
same,GI50,A549,> 100 µM (inactive)
same,GI50,COLO 205,> 100 µM (inactive)
same,GI50,NCI-H23,> 100 µM (inactive)
same,GI50,MDA-MB-231,> 100 µM (inactive)
same,GI50,U-251,> 100 µM (inactive)
same,GI50,RPMI-8226,> 100 µM (inactive)
same,GI50,HCT-15,> 100 µM
same,GI50,SNB-75,> 100 µM (inactive)
same,GI50,SK-MEL-5,> 100 µM (inactive)
same,GI50,NCI-H460,> 100 µM (inactive)
same,GI50,786-0,> 100 µM (inactive)
same,GI50,OVCAR-8,> 100 µM (inactive)
same,GI50,MCF7,> 100 µM (inactive)
same,GI50,SNB-19,> 100 µM (inactive)
same,GI50,UO-31,> 100 µM (inactive)
same,GI50,OVCAR-3,> 100 µM (inactive)
same,GI50,DU-145,> 100 µM (inactive)
same,GI50,SN12C,> 100 µM (inactive)
same,GI50,A498,91.6 µM (inactive)
same,GI50,SF-268,> 100 µM (inactive)
same,GI50,BT-549,> 100 µM (inactive)
same,GI50,UACC-257,> 100 µM (inactive)
same,GI50,HOP-92,> 100 µM (inactive)
same,GI50,HCC 2998,> 100 µM (inactive)
same,GI50,OVCAR-4,> 100 µM (inactive)
same,GI50,SK-OV-3,> 100 µM (inactive)
same,GI50,CCRF-CEM,> 100 µM (inactive)
same,GI50,HT-29,> 100 µM (inactive)
same,GI50,Malme-3M,> 100 µM (inactive)
same,GI50,NCI/ADR-RES,> 100 µM (inactive)
same,GI50,IGROV-1,> 100 µM (inactive)
same,GI50,Hs-578T,> 100 µM (inactive)
same,GI50,NCI-H522,> 100 µM (inactive)
same,GI50,MDA-MB-435,> 100 µM (inactive)
same,GI50,MOLT-4,> 100 µM (inactive)
same,GI50,SW-620,> 100 µM (inactive)
same,GI50,UACC-62,> 100 µM (inactive)
same,GI50,SK-MEL-2,> 100 µM (inactive)
same,GI50,CAKI-1,> 100 µM (inactive)
same,GI50,MDA-N,> 100 µM (inactive)
same,GI50,OVCAR-5,> 100 µM (inactive)
same,GI50,HCT-116,> 100 µM (inactive)
same,GI50,EKVX,> 100 µM (inactive)
same,GI50,T47D,> 100 µM (inactive)
same,GI50,ACHN,> 100 µM (inactive)
same,GI50,RXF 393,> 100 µM (inactive)
same,GI50,SK-MEL-28,> 100 µM (inactive)
same,GI50,LOX IMVI,> 100 µM (inactive)
same,GI50,SR,> 100 µM (inactive)
same,GI50,K562,> 100 µM (inactive)
